Patent US20150344540A1, “NOVEL GLP-1 RECEPTOR AGONISTS WITH CHOLESTEROL EFFLUX ACTIVITY” (NOVO NORDISK A/S, priority 2012, published 2015)

Key:
human GLP-1 receptor = human GLP-1 receptor (Homo sapiens, UniProt P43220); assay: Functional GLP-1 receptor assay, in vitro potency (CRE luciferase; whole cells); assay type: cell-based; conditions: GLP1R CRE luc 1% HSA EC50 Mean Value, BHK cells expressing human GLP-1 receptor, 1% HSA
pH solubility assay = assay type: physicochemical; set-up: unit not given here; conditions: two days at 25° C.
Protocol: One approach is to make a pH gradient from a buffer mix consisting of two buffers (e.g. citrate 100 mM/phosphate 200 mM), spike with a concentrated sample stock, and then leave the samples for 2 days at ambient temperature. […] Samples were incubated for two days at 25° C., centrifuged at 4700 g, and the concentration measured in the supernatant on a Nanodrop UV spectrophotometer (Thermo Fischer Scientific, Waltham, Mass.) using a theoretical extinction coefficient of 6,990 cm^−1M^−1.

[1] = Mechanical stress experiment, Thioflavin T fibrillation assay; assay type: physicochemical; conditions: 45 hour mechanical stress, 37° C., samples A-D
Protocol: In order to determine the physical stability of peptides in solution an accelerated mechanical stress assay was performed. Samples were prepared just before starting the assay. Samples may be prepared in the pH range 3-9 and with peptide concentrations in the range 0-20 mM. Samples may contain buffers such as phosphate, acetate, Tris. Samples may contain antimicrobial preservatives such as phenol or m-cresol.
The pH of the sample was adjusted to the desired value using NaOH and HCl. Thioflavin T was added to the samples from a stock solution in H2O to a final concentration of 5 μM.
Aliquots of each sample were transferred to a 96 well microtiter plate (Packard OptiPlate™-96, white polystyrene) with 200 μL in each well. For each sample data may be recorded for one well or for two or more replicas (two or more wells). […]
Incubation at a selected temperature, mechanical stress and measurement of Thioflavin T fluorescence was performed using a Fluoroskan Ascent FL fluorescence platereader (Thermo Labsystems). […] Fluorescence measurement was performed using excitation through a 444 nm filter and measurement of emission through a 485 nm filter. The fluorescence was measured every 20 minutes during the experiment.
The fluorescence from Thioflavin T was plotted against duration of mechanical stress. A substantial increase in fluorescence from Thioflavin T indicates amyloid fibril formation. […]

db/db mice = assay: Antidiabetic effect (acute blood glucose) in db/db mice; assay type: in vivo, male db/db (C57B1/KS db/db) mice
Protocol: The mice, 48 male db/db (C57B1/KS db/db), were purchased from Taconic, arriving at Novo Nordisk A/S Animal Unit at 6 weeks of age. The mice were housed according to standard rules in the animal unit and given free access to standard chow and tap water. The animals were kept at a room temperature of 22-24° C. and housed in groups of 5 mice, with free access to food and water, according to Animal Unit's SOP (Housing of experimental animals at Novo Nordisk A/S).
Test compound was administered as a single dose s.c.
Blood glucose was measured in a 5 μl full blood sample taken from the tip of the tail by puncturing the capillary bed with a lancet, using a 5 μl heparinised capillary tube to sample the blood. The capillary tube was then shaken into 2500 μl glucose/lactate System Solution and measured in a Biosen S_Line, autoanalyser (EKF Diagnostics GmbH, Magdeburg, Germany) according to the manufacturer's instructions. The samples were kept at room temperature until analysis. If analysis was postponed, samples were kept at 4° C. for a maximum of 24 h. The blood samples were taken at the following time points: 0, 30, 60, 120, 180 and 240 minutes and again at 24 h. After the 24 h sample, the blood was sampled from cheek or eye blood for drug exposure measurement in EDTA coated tubes. 50 μl plasma was pipetted from each animal for analysis in an in house immunoassay developed for GLP-1 analogues.

[2] = Pharmacokinetics in normal mice after i.v. and s.c. administration; assay type: in vivo, female C57B1/6J mice
[3] = Pharmacokinetics in mini-pigs after i.v. administration; conditions: female, Göttingen, minipig, plasma, iv, 5 nmol/kg
How it was run: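 Female Göttingen mini-pigs (15-20 kg, N=3) received 5 nmol/kg i.v. via central venous catheter. Plasma levels of N-terminally intact peptide measured by LOCI immunoassay with N-terminal and mid-/C-terminal antibodies; non-compartmental analysis of individual profiles.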

[4] = female, C57B1/6J, mouse, plasma, sc

Chain of human GLP-1 receptor (P43220 24-463): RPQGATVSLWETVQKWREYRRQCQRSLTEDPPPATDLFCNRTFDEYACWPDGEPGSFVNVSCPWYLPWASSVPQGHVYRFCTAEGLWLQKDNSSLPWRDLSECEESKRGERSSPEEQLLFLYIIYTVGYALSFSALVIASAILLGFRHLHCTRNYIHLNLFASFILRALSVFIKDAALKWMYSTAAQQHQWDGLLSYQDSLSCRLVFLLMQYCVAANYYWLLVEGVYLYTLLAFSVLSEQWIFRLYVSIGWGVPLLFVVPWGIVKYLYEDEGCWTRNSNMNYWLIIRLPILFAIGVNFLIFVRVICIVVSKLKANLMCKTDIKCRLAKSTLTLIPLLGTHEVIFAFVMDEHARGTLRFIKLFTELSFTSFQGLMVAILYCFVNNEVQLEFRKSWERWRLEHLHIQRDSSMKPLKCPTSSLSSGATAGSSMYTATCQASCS

EC50 (human GLP-1 receptor): 0.111 nM
Conc. supernatant (pH solubility assay; pH meas. 4.15, citrate 100 mM/phosphate 200 mM): 0.009
Conc. supernatant (pH solubility assay; pH meas. 4.50, citrate 100 mM/phosphate 200 mM): 0.002
Conc. supernatant (pH solubility assay; pH meas. 4.95, citrate 100 mM/phosphate 200 mM): 0.005
Conc. supernatant (pH solubility assay; pH meas. 5.29, citrate 100 mM/phosphate 200 mM): 0.021
Conc. supernatant (pH solubility assay; pH meas. 5.75, citrate 100 mM/phosphate 200 mM): 0.270
Conc. supernatant (pH solubility assay; pH meas. 6.10, citrate 100 mM/phosphate 200 mM): 0.228
Conc. supernatant (pH solubility assay; pH meas. 6.42, citrate 100 mM/phosphate 200 mM): 0.234
Conc. supernatant (pH solubility assay; pH meas. 6.76, citrate 100 mM/phosphate 200 mM): 0.249
Conc. supernatant (pH solubility assay; pH meas. 7.21, citrate 100 mM/phosphate 200 mM): 0.233
Conc. supernatant (pH solubility assay; pH meas. 7.65, citrate 100 mM/phosphate 200 mM): 0.244
Conc. supernatant (pH solubility assay; pH meas. 8.29, citrate 100 mM/phosphate 200 mM): 0.254
Conc. supernatant (pH solubility assay; pH meas. 8.65, phosphate 200 mM only): 0.247
fibril formation (Thioflavin T fluorescence) [1]: did not show signs of fibril formation
Plasma concentration 24 hours after dosing (db/db mice; single s.c. dose, FIG. 1B): still very high
half-life ([2]; female, C57B1/6J, mouse, plasma, iv): 6.7 h
Vd ([2]; female, C57B1/6J, mouse, plasma, iv, read-out: Volume of distribution): 0.0456 L/kg
Tmax [2, 4]: 4 h
half-life [2, 4]: 11.5 h
clearance ([2]; mice, i.v., Compound 1 dose 99 nmol/kg, Compound 5 dose 135 nmol/kg): 4.69 mL/h/kg
Volume of distribution ([2]; mice, s.c., Compound 1 dose 323 nmol/kg, Compound 5 dose 62 nmol/kg): 0.1592 L/kg
C0 [3]: 57.2 nM
Vd [3]: 0.16 L/kg
clearance [3]: 3.3 mL/h/kg
half-life ([3]; T1/2, mini-pigs): 33.7 h
half-life ([3]; T1/2 Mean Value, Göttingen mini-pigs, N=3): 33.7 h
SMILES: CC[C@H](C)[C@H](NC(=O)[C@H](Cc1ccccc1)NC(=O)[C@H](CCC(=O)O)NC(=O)[C@H](CCCCN)NC(=O)[C@@H](NC(=O)[C@H](C)NC(=O)[C@H](CCC(=O)O)NC(=O)CNC(=O)[C@H](CCC(=O)O)NC(=O)[C@H](CC(C)C)NC(=O)[C@H](Cc1ccc(O)cc1)NC(=O)[C@H](CO)NC(=O)[C@H](CO)NC(=O)[C@@H](NC(=O)[C@H](CC(=O)O)NC(=O)[C@H](CO)NC(=O)[C@@H](NC(=O)[C@H](Cc1ccccc1)NC(=O)[C@@H](NC(=O)CNC(=O)[C@H](CCC(=O)O)NC(=O)C(C)(C)NC(=O)[C@@H](N)Cc1c[nH]cn1)[C@@H](C)O)[C@@H](C)O)C(C)C)C(C)C)C(=O)N[C@@H](C)C(=O)N[C@@H](Cc1c[nH]c2ccccc12)C(=O)N[C@@H](CC(C)C)C(=O)N[C@H](C(=O)N[C@@H](CCC(=O)O)C(=O)N[C@@H](CCCCN)C(=O)NC(C)(C)C(=O)N[C@@H](CCCCN)C(=O)N[C@@H](CCC(=O)O)C(=O)N[C@@H](Cc1ccccc1)C(=O)N[C@@H](CC(C)C)C(N)=O)C(C)C [Compound 1, [Aib8,Glu23,Val25,Glu34,Lys35,Aib36,Lys37]-GLP-1-(7-37)-peptidyl-Glu-Phe-Leu amide]
duration of action (db/db mice; single s.c. dose): at least 24 h
acute effect on blood glucose (db/db mice; single s.c. dose 10, 30, 100 and 300 nmol/kg): lowered blood glucose in a dose-dependent manner
